Source: patent US8101761B2, “(E)-N-{3-[1-(8-fluoro-11H-10-OXA-1-AZA-dibenzo [A,D] cyclohepten-5ylidene)-propyl]-phenyl}-methanesulfonamide as glucocorticoid receptor modulator for the treatment of rheumatoid arthritis” (Eli Lilly and Company, priority 2008, dated 2012)

Columns and labels:
[1] = target: T1, human glucocorticoid receptor (GR) (Homo sapiens, UniProt P04150); experiment: Nuclear hormone receptor functional modulation assay (GRE-luciferase reporter, HEK293), GR; format: cell-based; conditions: agonist mode, mean of n=4 or 5
T1 construct: expressed in transfected cells; host or cells: HEK293, transient transfection, CMV promoter plasmid
T1 sequence (P04150 1-777): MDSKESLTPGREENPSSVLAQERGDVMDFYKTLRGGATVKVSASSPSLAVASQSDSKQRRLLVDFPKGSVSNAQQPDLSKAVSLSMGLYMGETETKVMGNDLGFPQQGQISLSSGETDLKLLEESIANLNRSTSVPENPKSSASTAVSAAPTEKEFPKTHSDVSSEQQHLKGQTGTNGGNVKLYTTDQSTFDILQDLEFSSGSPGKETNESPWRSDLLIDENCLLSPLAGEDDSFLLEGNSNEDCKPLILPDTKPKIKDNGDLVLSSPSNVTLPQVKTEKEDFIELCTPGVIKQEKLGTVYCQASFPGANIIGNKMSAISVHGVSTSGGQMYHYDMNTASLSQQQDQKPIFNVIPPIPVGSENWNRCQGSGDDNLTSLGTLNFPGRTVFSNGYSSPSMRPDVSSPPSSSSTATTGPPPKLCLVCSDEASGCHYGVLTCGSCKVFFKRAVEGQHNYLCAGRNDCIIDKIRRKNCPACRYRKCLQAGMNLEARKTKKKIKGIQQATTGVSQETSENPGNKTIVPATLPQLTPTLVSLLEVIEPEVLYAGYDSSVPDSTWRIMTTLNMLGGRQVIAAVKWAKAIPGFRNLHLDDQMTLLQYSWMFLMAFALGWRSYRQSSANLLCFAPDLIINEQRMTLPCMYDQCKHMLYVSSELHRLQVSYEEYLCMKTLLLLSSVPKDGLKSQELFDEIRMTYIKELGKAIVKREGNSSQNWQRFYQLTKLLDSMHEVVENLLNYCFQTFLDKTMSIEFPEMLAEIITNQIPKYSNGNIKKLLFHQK
Text: The solvents, reagents, and ligands employed in the functional assay are readily available from commercial sources, or can be prepared by one of ordinary skill in the art.
Human embryonic kidney HEK293 cells are transfected with steroid hormone receptor and reporter gene plasmids using Fugene™ transfection reagent. Briefly, the reporter plasmid containing two copies of probasin ARE and TK(thymidine kinase) promoter upstream of the luciferase reporter cDNA, is transfected into HEK293 cells with a plasmid constitutively expressing human androgen receptor (AR) using viral CMV(cytomegalovirus) promoter. The reporter plasmid containing two copies of GRE and TK promoter upstream of the luciferase reporter cDNA is transfected with a plasmid constitutively expressing either human glucocorticoid receptor (GR), human mineralocorticoid receptor (MR), or human progesterone receptor (PR) using viral CMV promoter. […] After 24-hours incubation with test compounds, cells are lysed and luciferase activity is determined using standard techniques.
Data are fitted to a four parameter-fit logistic curve fit to determine EC50 values. […] IC50 values may be determined similarly using antagonist mode assay data. Percent inhibitions may also be determined relative to the response in the presence of agonist alone, as described above.

[2] = target: T2, human GR (glucocorticoid receptor) (Homo sapiens, UniProt P04150); experiment: Nuclear hormone receptor competition binding assay, GR
T2 construct: expressed in transfected cells; host or cells: HEK293 (293-GR lysate)
T2 sequence (P04150 1-777): T1 sequence (P04150 1-777)
Description: Cell lysates from human embryonic kidney HEK293 cells overexpressing human GR (glucocorticoid receptor), AR (androgen receptor), MR (mineralocorticoid receptor), or PR (progesterone receptor) are used for receptor-ligand competition binding assays to determine Ki values.
Briefly, steroid receptor competition binding assays are run in a buffer containing 20 mM Hepes buffer (pH=7.6), 0.2 mM EDTA, 75 mM NaCl, 1.5 mM MgCl2, 20% glycerol, 20 mM sodium molybdate, 0.2 mM DTT (dithiothreitol), 20 μg/ml aprotinin and 20 μg/ml leupeptin. Typically, steroid receptor binding assays include radio-labeled ligands, such as 0.3 nM [^3H]-dexamethasone for GR binding, 0.36 nM [^3H]-methyltrienolone for AR binding, 0.25 nM [^3H]-aldosterone for MR binding, and 0.29 nM [^3H]-methyltrienolone for PR binding, and either 20 μg 293-GR lysate, 22 μg 293-AR lysate, 20 μg 293-MR lysate or 40 μg 293-PR lysate per well. Assays are typically run in 96-well format. Competing test compounds are added at various concentrations ranging from about 0.01 nM to 10 μM. Non-specific binding is determined in the presence of 500 nM dexamethasone for GR binding, 500 nM aldosterone for MR binding, or 500 nM methyltrienolone for AR and PR binding. […] After an incubation of 2 hours, plates are read in a Wallac Microbeta counter. […]

CC/C(=C1\c2ccc(F)cc2OCc2ncccc21)c1cccc(NS(C)(=O)=O)c1 [Compound (I), (E)-N-{3-[1-(8-Fluoro-11H-10-oxa-1-aza-dibenzo[a,d]cyclohepten-5-ylidene)-propyl]-phenyl}-methanesulfonamide]
efficacy in activating transcription, GR ([1]; relative to 100 nM dexamethasone): about 44% | EC50 ([1]; read-out: EC50 in activating transcription, GR): ~1.8 nM | Ki ([2]; HEK293 lysate overexpressing human GR, [3H]-dexamethasone, mean of n=7): ~0.2 nM | greater affinity for GR relative to each of human MR, AR, and PR ([2]; ratio of binding affinities): ≥ 15 fold
